In BindingDB's records for doi:10.1016/s0960-894x(99)00565-x (Dupont Pharmaceuticals, 1999):

Target: T1, Gag-Pol polyprotein [588-1027]/[588-1147] (Human immunodeficiency virus 1, UniProt P04585)
T1 construct: 588-1027; 588-1147
Experiment: HIV-1 RT Assay
Details: pH 8.2; 37 °C

Compound	IC50
CC(=O)Nc1ccc2c(c1)C(C#CC(C)C)(C(F)(F)F)OC(=O)N2 (configuration not stated)	> 2000 nM
CC(=O)Nc1ccc2c(c1)C(C#CC1CC1)(C(F)(F)F)OC(=O)N2 (configuration not stated)	> 2000 nM
